Data published in ChEMBL document CHEMBL1250455, “Further delineation of hydrophobic binding sites in dopamine D(2)/D(3) receptors for N-4 substituents on the piperazine ring of the hybrid template 5/7-{[2-(4-aryl-piperazin-1-yl)-ethyl]-propyl-amino}-5,6,7,8-tetrahydro-naphthalen-2-ol” (Bioorg Med Chem, 2010).

Experiments:
Rattus norvegicus = species on record: Rattus norvegicus; test: Selectivity ratio for Ki for rat D2 receptor to Ki for rat D3 receptor
D(2) dopamine receptor [1] = target: D(2) dopamine receptor (Rattus norvegicus, UniProt P61169); test: Displacement of [3H]spiperone from rat D2 receptor expressed in HEK293 cells; assay type: cell-based
D(2) dopamine receptor (Rattus norvegicus, UniProt P61169), sequence (P61169 whole entry): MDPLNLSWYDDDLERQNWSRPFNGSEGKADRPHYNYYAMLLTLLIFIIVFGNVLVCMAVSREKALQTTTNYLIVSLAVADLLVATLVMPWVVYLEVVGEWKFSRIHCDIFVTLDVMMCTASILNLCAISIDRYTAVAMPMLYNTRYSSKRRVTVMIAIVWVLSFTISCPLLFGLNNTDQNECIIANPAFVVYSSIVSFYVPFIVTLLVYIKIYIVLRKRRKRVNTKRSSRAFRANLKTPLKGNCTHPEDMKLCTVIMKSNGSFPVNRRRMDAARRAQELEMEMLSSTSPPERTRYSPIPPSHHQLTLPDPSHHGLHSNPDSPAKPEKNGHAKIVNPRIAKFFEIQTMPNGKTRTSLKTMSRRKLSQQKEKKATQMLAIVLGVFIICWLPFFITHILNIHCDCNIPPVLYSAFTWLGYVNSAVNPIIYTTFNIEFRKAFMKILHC

D(3) dopamine receptor [2] = target: D(3) dopamine receptor (Rattus norvegicus, UniProt P19020); test: Displacement of [3H]spiperone from rat D3 receptor expressed in HEK293 cells; assay type: cell-based
D(3) dopamine receptor (Rattus norvegicus, UniProt P19020), sequence (P19020 whole entry): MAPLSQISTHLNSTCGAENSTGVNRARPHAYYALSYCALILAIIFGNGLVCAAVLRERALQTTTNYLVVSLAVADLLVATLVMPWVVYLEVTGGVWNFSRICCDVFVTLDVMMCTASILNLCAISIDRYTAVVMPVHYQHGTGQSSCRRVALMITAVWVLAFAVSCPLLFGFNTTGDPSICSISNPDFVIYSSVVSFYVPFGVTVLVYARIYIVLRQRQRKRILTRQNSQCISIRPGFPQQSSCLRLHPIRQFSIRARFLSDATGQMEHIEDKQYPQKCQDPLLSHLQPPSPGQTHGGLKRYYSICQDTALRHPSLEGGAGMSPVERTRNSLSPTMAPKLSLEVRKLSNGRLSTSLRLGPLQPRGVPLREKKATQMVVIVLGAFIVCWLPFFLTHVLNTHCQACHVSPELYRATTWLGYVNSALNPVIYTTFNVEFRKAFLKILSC

D(2) dopamine receptor [3] = target: T1, D(2) dopamine receptor (Homo sapiens, UniProt P14416); test: Agonist activity at human dopamine D2 receptor expressed in CHO cells assessed as stimulation of [35S]GTPgammaS binding relative to dopamine; assay type: functional, cell-based
T1 sequence (P14416 whole entry): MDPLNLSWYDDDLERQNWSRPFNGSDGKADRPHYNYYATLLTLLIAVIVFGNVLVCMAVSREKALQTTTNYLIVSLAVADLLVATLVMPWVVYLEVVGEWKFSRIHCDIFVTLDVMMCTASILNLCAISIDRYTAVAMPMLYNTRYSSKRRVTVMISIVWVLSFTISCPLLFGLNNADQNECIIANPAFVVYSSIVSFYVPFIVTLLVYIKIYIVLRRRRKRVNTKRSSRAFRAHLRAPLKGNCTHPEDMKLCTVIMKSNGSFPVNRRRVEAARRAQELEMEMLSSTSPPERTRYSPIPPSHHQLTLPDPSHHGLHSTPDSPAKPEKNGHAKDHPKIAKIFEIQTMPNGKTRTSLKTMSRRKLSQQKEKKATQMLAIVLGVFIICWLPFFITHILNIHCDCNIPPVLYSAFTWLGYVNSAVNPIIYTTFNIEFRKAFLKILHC

D(3) dopamine receptor [4] = target: D(3) dopamine receptor (Homo sapiens, UniProt P35462); test: Agonist activity at human dopamine D3 receptor expressed in CHO cells assessed as stimulation of [35S]GTPgammaS binding; assay type: functional, cell-based
D(3) dopamine receptor (Homo sapiens, UniProt P35462), sequence (P35462 whole entry): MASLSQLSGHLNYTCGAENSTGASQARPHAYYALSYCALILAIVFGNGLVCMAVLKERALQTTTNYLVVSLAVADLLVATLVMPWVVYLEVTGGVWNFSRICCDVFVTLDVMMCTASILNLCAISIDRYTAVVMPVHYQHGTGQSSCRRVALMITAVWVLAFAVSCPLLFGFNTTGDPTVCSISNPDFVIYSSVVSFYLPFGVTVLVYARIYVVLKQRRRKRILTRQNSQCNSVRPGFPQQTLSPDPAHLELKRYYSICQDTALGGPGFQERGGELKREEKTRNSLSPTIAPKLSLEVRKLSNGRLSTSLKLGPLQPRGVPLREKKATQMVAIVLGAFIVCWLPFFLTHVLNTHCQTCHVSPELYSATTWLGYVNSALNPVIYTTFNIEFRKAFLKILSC

Homo sapiens = species on record: Homo sapiens; test: Selectivity ratio of EC50 for human dopamine D2 receptor to EC50 for human dopamine D3 receptor
D(2) dopamine receptor [5] = target: T1, D(2) dopamine receptor; test: Agonist activity at human dopamine D2 receptor expressed in CHO cells assessed as stimulation of [35S]GTPgammaS binding; assay type: functional, cell-based

Row | Ratio Ki (Rattus norvegicus) | Ki (D(2) dopamine receptor [1]) [nM] | Ki (D(3) dopamine receptor [2]) [nM] | Emax (D(2) dopamine receptor [3]) [%] | EC50 (D(3) dopamine receptor [4]) [nM] | Ratio EC50 (Homo sapiens) | EC50 (D(2) dopamine receptor [5]) [nM] | SMILES
1 | 7.51 | 21.7 | 2.89 |  |  |  |  | CCCN(CCN1CCN(c2cccnc2)CC1)C1CCc2ccc(O)cc2C1 (configuration not stated)
2 | 4.84 | 68.3 | 14.1 |  |  |  |  | CCCN(CCN1CCN(c2ccncc2)CC1)C1CCc2ccc(O)cc2C1 (configuration not stated)
3 | 6.06 | 46.4 | 7.66 |  |  |  |  | CCCN(CCN1CCN(c2ccc(I)cc2)CC1)C1CCc2ccc(O)cc2C1 (configuration not stated)
4 |  | 24.7 |  |  |  |  |  | CCCN(CCN1CCN(c2ccc(-c3ccncc3)cc2)CC1)C1CCc2ccc(O)cc2C1 (stereo in doubt; 22d) [listing 1 of 2 here]
5 | 32 |  |  |  |  |  |  | CCCN(CCN1CCN(c2ccc(-c3ccncc3)cc2)CC1)C1CCc2ccc(O)cc2C1 (stereo in doubt; 22d) [listing 2 of 2 here]
6 |  | 58 | 2.79 |  | 1.03 |  | 108 | CCCN(CCN1CCN(c2ccc(-c3ccccc3)cc2)CC1)C1CCc2ccc(O)cc2C1 (stereo in doubt; (+)-8a) [listing 1 of 2 here]
7 | 20.8 |  |  | 42.1 |  | 105 |  | CCCN(CCN1CCN(c2ccc(-c3ccccc3)cc2)CC1)C1CCc2ccc(O)cc2C1 (stereo in doubt; (+)-8a) [listing 2 of 2 here]

Second part, the compound before the results:

Row | SMILES | Ratio Ki (Rattus norvegicus) | Ki (D(2) dopamine receptor [1]) [nM] | Ki (D(3) dopamine receptor [2]) [nM] | Emax (D(2) dopamine receptor [3]) [%] | EC50 (D(3) dopamine receptor [4]) [nM] | Ratio EC50 (Homo sapiens) | EC50 (D(2) dopamine receptor [5]) [nM]
8 | CCCN(CCN1CCN(c2ccccn2)CC1)C1CCc2ccc(O)cc2C1 (configuration not stated) | 52.6 | 103 | 1.96 |  |  |  | 
9 | CCCN(CCN1CCN(c2ncccn2)CC1)C1CCc2ccc(O)cc2C1 (configuration not stated) | 24.1 | 165 | 6.84 |  |  |  | 
10 | CCCN(CCN1CCN(c2nccc3ccccc23)CC1)[C@H]1CCc2nc(N)sc2C1 | 121 |  |  |  |  |  | 
11 | NCCc1ccc(O)c(O)c1 |  |  |  | 100 |  |  | 
12 | CCCN(CCN1CCN(c2ccc(-c3cccnc3)cc2)CC1)C1CCc2ccc(O)cc2C1 (racemic) | 19.6 | 59.1 | 3.01 |  |  |  | 
13 | CCCN(CCN1CCN(c2ccc(-c3ccccc3)cc2)CC1)C1CCc2c(O)cccc2C1 (single isomer, unassigned; (-)) | 22.7 | 53.6 | 2.36 | 71.8 | 0.25 | 202 | 52.6
14 | CCCN(CCN1CCN(c2ccc(-c3ccncc3)cc2)CC1)C1CCc2c(O)cccc2C1 (single isomer, unassigned; (-)) |  |  | 1.53 |  |  |  | 
15 | CCCN(CCN1CCN(c2ccc(-c3ccncc3)cc2)CC1)C1CCc2ccc(O)cc2C1 (single isomer, unassigned; (-)) | 24.6 |  |  |  |  |  | 
16 | CCCN(CCN1CCN(c2ccc(-c3ccccc3)cc2)CC1)C1CCc2ccc(O)cc2C1 (stereo in doubt; 8a) |  | 64.1 | 5.22 |  |  |  | 
17 | CCCN(CCC)CCc1cccc2c1CC(=O)N2 [ROPINIROLE] |  | 2670 |  | 83.9 |  |  | 
